Data on 24 molecules can be found in patent US20090247559A1 (Exelixis, Inc., priority 2007, published 2009).

The term IC50 denotes the concentration that inhibits the measured activity by half.

One experiment has as its target CDC7 (Homo sapiens, UniProt O00311). The experiment is described as follows: CDC7 inhibition, biochemical chemiluminescence assay (Kinase Glo, IC50 determination). The gist of the method: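 CDC7 enzyme preincubated with compound 10 min at ambient temperature, then ATP mix in Tris Base added; reaction 90 min at 24-27 °C. Remaining ATP quantified by Kinase Glo luminescence to give IC50.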

The next experiment concerns the target CK2 (Homo sapiens, UniProt P68400). The experiment is described as follows: CK2 inhibition, biochemical chemiluminescence holoenzyme assay (Kinase Glo, IC50 determination). To be noted: Table 1 activity class; symbol given only if active; read-out: CK2 IC50 (Activity C). The gist of the method:
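Holoenzyme CK2 assay; compounds pre-incubated with substrate and enzyme, then reacted 150 min at 24-27° C. Remaining ATP measured as luminescence with Kinase Glo, and IC50 derived from the signal.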
A general note: Kinase-Glo measures the ATP left after a reaction by luminescence.

The target in experiment [1] is PIM (PIM-1, PIM-2, and/or PIM-3). Description: PIM-1, PIM-2 and PIM-3 inhibition, biochemical chemiluminescence assays (Kinase Glo, IC50 determination). As to conditions: Table 1 activity class; PIM refers to PIM-1, PIM-2, and/or PIM-3; read-out: PIM IC50 (Activity B).
Where [2] appears, read: Table 1 activity class, symbol given only if active, read-out: CDC7 IC50 (Activity A).
Setting [3] is: compounds in Table 1, read-out: CDC7 IC50 value.

Structures are written as SMILES. Where two headings read alike, the source gives them in different places.

CK2, sequence (P68400 whole entry): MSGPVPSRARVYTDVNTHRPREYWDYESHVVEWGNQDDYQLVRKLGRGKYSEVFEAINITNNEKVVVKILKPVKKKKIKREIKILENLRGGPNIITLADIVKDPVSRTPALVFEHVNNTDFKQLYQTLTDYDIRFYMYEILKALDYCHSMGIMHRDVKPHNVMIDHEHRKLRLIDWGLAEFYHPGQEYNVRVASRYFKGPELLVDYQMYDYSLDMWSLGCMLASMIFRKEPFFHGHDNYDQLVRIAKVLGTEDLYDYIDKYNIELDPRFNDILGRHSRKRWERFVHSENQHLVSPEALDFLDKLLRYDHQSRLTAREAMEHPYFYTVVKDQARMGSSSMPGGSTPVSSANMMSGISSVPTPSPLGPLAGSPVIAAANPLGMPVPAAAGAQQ
CK2, sequence (P67870 whole entry partner): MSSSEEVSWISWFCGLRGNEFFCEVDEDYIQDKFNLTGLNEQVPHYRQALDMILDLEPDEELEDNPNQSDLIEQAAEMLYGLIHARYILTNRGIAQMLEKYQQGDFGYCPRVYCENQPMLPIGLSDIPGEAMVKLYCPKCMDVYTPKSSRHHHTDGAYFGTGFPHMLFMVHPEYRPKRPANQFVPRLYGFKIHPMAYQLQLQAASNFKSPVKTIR
CDC7, sequence (O00311 whole entry): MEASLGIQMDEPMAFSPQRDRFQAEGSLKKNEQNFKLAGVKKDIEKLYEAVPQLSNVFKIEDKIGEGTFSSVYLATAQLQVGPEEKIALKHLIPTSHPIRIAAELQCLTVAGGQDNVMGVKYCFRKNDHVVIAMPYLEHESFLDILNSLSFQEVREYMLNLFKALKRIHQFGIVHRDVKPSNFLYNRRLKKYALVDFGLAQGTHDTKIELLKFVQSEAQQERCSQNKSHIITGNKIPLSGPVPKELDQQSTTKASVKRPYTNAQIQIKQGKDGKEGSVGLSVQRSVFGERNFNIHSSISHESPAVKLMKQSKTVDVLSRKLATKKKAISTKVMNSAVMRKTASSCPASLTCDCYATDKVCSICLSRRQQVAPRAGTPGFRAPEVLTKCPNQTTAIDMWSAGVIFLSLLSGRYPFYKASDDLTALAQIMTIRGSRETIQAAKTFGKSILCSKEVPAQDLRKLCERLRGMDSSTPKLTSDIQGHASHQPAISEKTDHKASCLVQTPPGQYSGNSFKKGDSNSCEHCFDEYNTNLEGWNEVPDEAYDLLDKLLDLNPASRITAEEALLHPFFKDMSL
CDC7, sequence (Q9UBU7 whole entry partner): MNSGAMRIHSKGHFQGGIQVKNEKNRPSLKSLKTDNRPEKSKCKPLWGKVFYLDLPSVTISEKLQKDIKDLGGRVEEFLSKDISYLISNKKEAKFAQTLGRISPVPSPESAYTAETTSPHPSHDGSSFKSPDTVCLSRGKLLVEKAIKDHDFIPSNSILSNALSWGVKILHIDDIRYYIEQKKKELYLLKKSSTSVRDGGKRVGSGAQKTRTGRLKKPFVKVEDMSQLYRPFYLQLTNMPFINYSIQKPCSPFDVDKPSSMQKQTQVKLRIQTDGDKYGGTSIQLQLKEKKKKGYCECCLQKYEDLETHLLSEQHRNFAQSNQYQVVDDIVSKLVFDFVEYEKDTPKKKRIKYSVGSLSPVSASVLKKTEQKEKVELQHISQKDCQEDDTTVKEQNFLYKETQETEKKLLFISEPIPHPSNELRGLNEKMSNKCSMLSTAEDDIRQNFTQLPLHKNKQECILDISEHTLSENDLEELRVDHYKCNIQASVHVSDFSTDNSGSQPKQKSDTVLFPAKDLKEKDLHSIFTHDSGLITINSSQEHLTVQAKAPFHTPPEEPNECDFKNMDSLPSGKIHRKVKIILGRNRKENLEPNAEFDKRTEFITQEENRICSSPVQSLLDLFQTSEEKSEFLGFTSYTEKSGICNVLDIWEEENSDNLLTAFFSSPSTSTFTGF

In the case of `COc1ccc(C(=O)Nc2ccc(-c3nc4c(oc5ccc(Br)cc54)c(=O)[nH]3)c(Cl)c2)cn1` [Compound 343, N-[4-(8-bromo-4-oxo-3,4-dihydro[1]benzofuro[3,2-d]pyrimidin-2-yl)-3-chlorophenyl]-6-(methyloxy)pyridine-3-carboxamide], the IC50 (at CDC7 (setting [2]); on CK2; in experiment [1]) was less than 10 µM throughout.

Take `O=c1[nH]c(CN2CCC[C@@H]2CO)nc2c1oc1ccc(Br)cc12` [Compound 344, 8-bromo-2-{[(2R)-2-(hydroxymethyl)pyrrolidin-1-yl]methyl}[1]benzofuro[3,2-d]pyrimidin-4(3H)-one]: the IC50 is less than 10 µM at CDC7 (setting [2]), less than 0.1 µM at CDC7 (setting [3]), less than 10 µM on CK2 and less than 10 µM in experiment [1].

With `CC1(O)CCN(Cc2nc3c(oc4ccc(Br)cc43)c(=O)[nH]2)C1` (stereo not drawn) [Compound 346, 8-bromo-2-[(3-hydroxy-3-methylpyrrolidin-1-yl)methyl][1]benzofuro[3,2-d]pyrimidin-4(3H)-one], the IC50 on CDC7 (setting [2]) is less than 10 µM; on CDC7 (setting [3]) it was less than 0.1 µM; on CK2 it was less than 10 µM; in experiment [1], less than 10 µM.

Take `O=C(O)c1ccc(C(=O)Nc2ccc(-c3nc4c(oc5ccc(Br)cc54)c(=O)[nH]3)c(Cl)c2)nc1` [Compound 347, 6-({[4-(8-bromo-4-oxo-3,4-dihydro[1]benzofuro[3,2-d]pyrimidin-2-yl)-3-chlorophenyl]amino}carbonyl)pyridine-3-carboxylic acid]: the IC50 (at CDC7 (setting [2]); at CK2; in experiment [1]) was less than 10 µM in each case.

Turning to `O=c1[nH]c(CN2C[C@@H](O)[C@@H](O)C2)nc2c1oc1ccc(Br)cc12` [Compound 348, 8-bromo-2-{[cis-3,4-dihydroxypyrrolidin-1-yl]methyl}[1]benzofuro[3,2-d]pyrimidin-4(3H)-one], the IC50 on CDC7 (setting [2]) is less than 10 µM; on CDC7 (setting [3]), less than 0.1 µM; on CK2, less than 10 µM; in experiment [1], less than 10 µM.

For `NCc1ccc(-c2nc3c(oc4ccc(Br)cc43)c(=O)[nH]2)cc1` [Compound 349, 2-[4-(Aminomethyl)phenyl]-8-bromo[1]benzofuro[3,2-d]pyrimidin-4(3H)-one], the IC50 (on CDC7 (setting [2]); at CK2; in experiment [1]) was less than 10 µM in each case.

Take `CN(C)Cc1cccc(-c2nc3c(oc4ccc(Br)cc43)c(=O)[nH]2)c1` [Compound 353, 8-Bromo-2-{3-[(dimethylamino)methyl]phenyl}[1]benzofuro[3,2-d]pyrimidin-4(3H)-one]: the IC50 (on CDC7 (setting [2]); at CK2; in experiment [1]) was less than 10 µM each time.

In the case of `Cc1cc(C(=O)Nc2ccc(-c3nc4c(oc5ccc(Br)cc54)c(=O)[nH]3)c(Cl)c2)no1` [Compound 362, N-[4-(8-bromo-4-oxo-3,4-dihydro[1]benzofuro[3,2-d]pyrimidin-2-yl)-3-chlorophenyl]-5-methylisoxazole-3-carboxamide], the 50% inhibitory concentration (IC50) (at CDC7 (setting [2]); on CK2; in experiment [1]) was less than 10 µM in each case.

As for `O=C(Nc1ccc(-c2nc3c(oc4ccc(Br)cc43)c(=O)[nH]2)c(Cl)c1)c1ccon1` [Compound 363, N-[4-(8-bromo-4-oxo-3,4-dihydro[1]benzofuro[3,2-d]pyrimidin-2-yl)-3-chlorophenyl]isoxazole-3-carboxamide], the IC50 (at CDC7 (setting [2]); at CK2; in experiment [1]) was less than 10 µM throughout.

On to `CC(=O)N[C@@H]1CCN(Cc2nc3c(oc4ccc(Br)cc43)c(=O)[nH]2)C1` [Compound 364, N-{(3R)-1-[(8-bromo-4-oxo-3,4-dihydro[1]benzofuro[3,2-d]pyrimidin-2-yl)methyl]pyrrolidin-3-yl}acetamide], for which the IC50 at CDC7 (setting [2]) is less than 10 µM; on CDC7 (setting [3]) it was less than 0.1 µM; at CK2, less than 10 µM; in experiment [1] it was less than 10 µM.

As to `O=c1[nH]c(CN2CCC[C@H]2CO)nc2c1oc1ccc(Br)cc12` [Compound 366, 8-bromo-2-{[(2S)-2-(hydroxymethyl)pyrrolidin-1-yl]methyl}[1]benzofuro[3,2-d]pyrimidin-4(3H)-one], the IC50 is less than 10 µM on CDC7 (setting [2]), less than 0.1 µM at CDC7 (setting [3]), less than 10 µM on CK2 and less than 10 µM in experiment [1].

With `O=C(O)C1(O)CCN(Cc2nc3c(oc4ccc(Br)cc43)c(=O)[nH]2)C1` (stereo not drawn) [Compound 368, 1-[(8-bromo-4-oxo-3,4-dihydro[1]benzofuro[3,2-d]pyrimidin-2-yl)methyl]-3-hydroxypyrrolidine-3-carboxylic acid], the half-inhibitory concentration (IC50) was less than 10 µM on CDC7 (setting [2]), less than 0.1 µM at CDC7 (setting [3]), less than 10 µM at CK2 and less than 10 µM in experiment [1].

Turning to `CO[C@H]1CCN(Cc2nc3c(oc4ccc(Br)cc43)c(=O)[nH]2)C1` [Compound 369, 8-bromo-2-{[(3S)-3-(methyloxy)pyrrolidin-1-yl]methyl}[1]benzofuro[3,2-d]pyrimidin-4(3H)-one], the concentration for half-maximal inhibition (IC50) at CDC7 (setting [2]) was less than 10 µM; at CDC7 (setting [3]), less than 0.1 µM; at CK2 it was less than 10 µM; in experiment [1], less than 10 µM.

For the molecule `O=C(O)C1CN(Cc2nc3c(oc4ccc(Br)cc43)c(=O)[nH]2)C1` [Compound 370, 1-[(8-bromo-4-oxo-3,4-dihydro[1]benzofuro[3,2-d]pyrimidin-2-yl)methyl]azetidine-3-carboxylic acid], the IC50 (on CDC7 (setting [2]); at CK2; in experiment [1]) was less than 10 µM throughout.

On to `O=C(Nc1ccc(-c2nc3c(oc4ccc(Br)cc43)c(=O)[nH]2)c(Cl)c1)c1ncco1` [Compound 373, N-[4-(8-bromo-4-oxo-3,4-dihydro[1]benzofuro[3,2-d]pyrimidin-2-yl)-3-chlorophenyl]-1,3-oxazole-2-carboxamide], for which the 50% inhibitory concentration (IC50) (on CDC7 (setting [2]); at CK2; in experiment [1]) was less than 10 µM each time.

For `O=C(Nc1ccc(-c2nc3c(oc4ccc(Br)cc43)c(=O)[nH]2)c(Cl)c1)c1cnco1` [Compound 374, N-[4-(8-bromo-4-oxo-3,4-dihydro[1]benzofuro[3,2-d]pyrimidin-2-yl)-3-chlorophenyl]-1,3-oxazole-5-carboxamide], the IC50 (at CDC7 (setting [2]); on CK2; in experiment [1]) was less than 10 µM throughout.

Turning to `O=c1[nH]c(-c2cccc3c2CCNC3)nc2c1oc1ccc(Br)cc12` [Compound 375, 8-Bromo-2-(1,2,3,4-tetrahydroisoquinolin-5-yl)[1]benzofuro[3,2-d]pyrimidin-4(3H)-one], the IC50 at CDC7 (setting [2]) is less than 10 µM; on CDC7 (setting [3]), less than 0.1 µM; at CK2 it was less than 10 µM; in experiment [1] it was less than 10 µM.

Regarding `O=c1[nH]c(-c2cnc3cc(C4CCNCC4)nn3c2)nc2c1oc1ccc(Br)cc12` [Compound 377, 8-Bromo-2-(2-piperidin-4-ylpyrazolo[1,5-a]pyrimidin-6-yl)[1]benzofuro[3,2-d]pyrimidin-4(3H)-one], the half-maximal inhibitory concentration (IC50) (on CDC7 (setting [2]); on CK2; in experiment [1]) was less than 10 µM in each case.

Consider `NC1CCCC(c2nc3c(oc4ccc(Br)cc43)c(=O)[nH]2)C1` (stereo not drawn) [Compound 380, 2-(3-aminocyclohexyl)-8-bromo[1]benzofuro[3,2-d]pyrimidin-4(3H)-one], for which the half-maximal inhibitory concentration (IC50) is less than 10 µM on CDC7 (setting [2]), less than 0.1 µM on CDC7 (setting [3]), less than 10 µM at CK2 and less than 10 µM in experiment [1].

On to `CN(C)Cc1ccc(-c2nc3c(oc4ccc(Br)cc43)c(=O)[nH]2)c(Cl)c1` [Compound 381, 8-bromo-2-{2-chloro-4-[(dimethylamino)methyl]phenyl}[1]benzofuro[3,2-d]pyrimidin-4(3H)-one], for which the concentration for half-maximal inhibition (IC50) (at CDC7 (setting [2]); at CK2; in experiment [1]) was less than 10 µM in each case.

Take `O=c1[nH]c(-c2ccc(CNCCN3CCCCC3)cc2Cl)nc2c1oc1ccc(Br)cc12` [Compound 385, 8-bromo-2-(2-chloro-4-{[(2-piperidin-1-ylethyl)amino]methyl}phenyl)[1]benzofuro[3,2-d]pyrimidin-4(3H)-one]: the IC50 (at CDC7 (setting [2]); at CK2; in experiment [1]) was less than 10 µM in each case.

As for `CC(C)(C)OC(=O)N1CCC(NCc2ccc(-c3nc4c(oc5ccc(Br)cc54)c(=O)[nH]3)c(Cl)c2)CC1` [Compound 386, 1,1-dimethylethyl 4-({[4-(8-bromo-4-oxo-3,4-dihydro[1]benzofuro[3,2-d]pyrimidin-2-yl)-3-chlorophenyl]methyl}amino)piperidine-1-carboxylate], the concentration for half-maximal inhibition (IC50) (on CDC7 (setting [2]); at CK2; in experiment [1]) was less than 10 µM throughout.

As for `O=C(N[C@@H]1CN(Cc2nc3c(oc4ccc(Br)cc43)c(=O)[nH]2)C[C@H]1O)C1CCNCC1` [Compound 388, N-{(3R,4R)-1-[(8-bromo-4-oxo-3,4-dihydro[1]benzofuro[3,2-d]pyrimidin-2-yl)methyl]-4-hydroxypyrrolidin-3-yl}piperidine-4-carboxamide], the IC50 (at CDC7 (setting [2]); on CK2; in experiment [1]) was less than 10 µM throughout.

As to `Cn1cnc(C(=O)Nc2ccc(-c3nc4c(oc5ccc(Br)cc54)c(=O)[nH]3)c(Cl)c2)c1` [Compound 389, N-[4-(8-bromo-4-oxo-3,4-dihydro[1]benzofuro[3,2-d]pyrimidin-2-yl)-3-chlorophenyl]-1-methyl-1H-imidazole-4-carboxamide], the 50% inhibitory concentration (IC50) (on CDC7 (setting [2]); at CK2; in experiment [1]) was less than 10 µM throughout.
